This passage reports gall reduction efficacy results from US9433214B2, “Active compounds combination containing fluopyram Bacillus and biologically control agent” (BAYER INTELLECTUAL PROPERTY GMBH, priority 2012, dated 2016).

The subject of this test is Meloidogyne incognita. Nature of the test: Meloidogyne incognita test (MELGIN): gall formation on salad seedlings in sand. The test is classed as in vivo. Particulars: 504 h, eggs and larvae of Meloidogyne incognita, salad seeds in sand, 100% = no galls, read-out: Mortality in % after 21 d. The method, then: Meloidogyne incognita—Test (MELGIN)
Solvent: 125.0 parts by weight of acetone
To produce a suitable preparation of active compound, 1 part by weight of active compound is mixed with the stated amount of solvent, and the concentrate is diluted with water to the desired concentration. The preparation of the bacteria, fungi or yeast products contains 10^9-10^10 spores/g or cells/g. To produce a suitable preparation of a biological suspension the cells or spores are diluted with emulsifier-containing water to the desired concentration.
Vessels are filled with sand, a solution of the active ingredient, a suspension containing eggs and larvae of Meloidogyne incognita and salad seeds. The salad seeds germinate and the seedlings grow. Galls develop in the roots.
After the specified period of time the nematicidal activity is determined on the basis of the percentage of gall formation. When Meloidogyne incognita attacks roots of plants, it deforms the normal root cells and establishes giant cells and consequently the attacked roots form galls. 100% means that no galls were found; 0% means that the number of galls found on the roots of the treated plants was equal to that in untreated control plants.

Molecules are shown by their SMILES.

Take `O=C(NCCc1ncc(C(F)(F)F)cc1Cl)c1ccccc1C(F)(F)F` [Fluopyram]: the gall reduction efficacy at 0.0005 ppm was determined as 0%.
